{
  "source": "patent US20090054504A1",
  "about": "(KNOPP NEUROSCIENCES, INC., priority 2007, published 2009)",
  "key": {"[1]": {"test": "in vivo", "conditions": "male, dog", "protocol": "(§2) Doses were administered orally by gavage and clinical observations were taken continuously following dosing: hourly for the first four hours, and then twice daily cage-side observations for the duration of the inter-dose or post-dose interval. Observations were made of clinical signs, mortality, injury and availability of food and water. Animals were fasted for 24 hr prior to dosing. Dogs in each group were exposed to only one drug, or the combination; each dose was administered only once, with a subsequent dose administered after a recovery period of 4 days."}, "[2]": {"test_system": "dogs", "conditions": "single oral dose; cited from earlier work"}, "[3]": {"test_system": "monkeys treated with MPTP", "conditions": "from MPTP monkey dose"}, "[4]": {"test_system": "rodents", "conditions": "single oral dose; cited from earlier work"}, "[5]": {"target": "human cloned dopamine receptors (D3) (Homo sapiens, UniProt P35462)", "sequence (P35462 whole entry)": "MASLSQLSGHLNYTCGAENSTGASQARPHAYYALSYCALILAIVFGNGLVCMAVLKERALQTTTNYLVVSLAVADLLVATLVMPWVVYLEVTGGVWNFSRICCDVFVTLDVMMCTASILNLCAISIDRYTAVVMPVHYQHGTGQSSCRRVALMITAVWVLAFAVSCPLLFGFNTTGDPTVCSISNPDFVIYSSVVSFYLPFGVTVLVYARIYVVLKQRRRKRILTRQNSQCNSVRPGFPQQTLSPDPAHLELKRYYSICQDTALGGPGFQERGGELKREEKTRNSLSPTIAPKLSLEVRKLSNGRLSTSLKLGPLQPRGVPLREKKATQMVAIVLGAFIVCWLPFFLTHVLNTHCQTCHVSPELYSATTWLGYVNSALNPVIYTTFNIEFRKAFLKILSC", "test": "biochemical", "procedure": "(§1) These concentrations were tested in cell lines expressing select human cloned dopamine receptors (D2S, D3)."}, "[6]": {"test_system": "human subjects", "conditions": "cited from earlier work; for MRTD (maximum recommended therapeutic dose): FDA MRTD database"}, "[7]": {"test_system": "Parkinson's disease patients", "conditions": "human trials; cited from earlier work"}, "[8]": {"test_system": "non-naïve male beagle dogs", "protocol": "as §2"}, "[9]": {"test_system": "monkeys treated with MPTP", "conditions": "motor deficits and Parkinson-like symptoms; cited from earlier work"}, "[10]": {"test_system": "restless legs syndrome patients", "conditions": "human trials; cited from earlier work"}, "[11]": {"target": "D5 dopamine receptor (Homo sapiens, UniProt P21918)", "sequence (P21918 whole entry)": "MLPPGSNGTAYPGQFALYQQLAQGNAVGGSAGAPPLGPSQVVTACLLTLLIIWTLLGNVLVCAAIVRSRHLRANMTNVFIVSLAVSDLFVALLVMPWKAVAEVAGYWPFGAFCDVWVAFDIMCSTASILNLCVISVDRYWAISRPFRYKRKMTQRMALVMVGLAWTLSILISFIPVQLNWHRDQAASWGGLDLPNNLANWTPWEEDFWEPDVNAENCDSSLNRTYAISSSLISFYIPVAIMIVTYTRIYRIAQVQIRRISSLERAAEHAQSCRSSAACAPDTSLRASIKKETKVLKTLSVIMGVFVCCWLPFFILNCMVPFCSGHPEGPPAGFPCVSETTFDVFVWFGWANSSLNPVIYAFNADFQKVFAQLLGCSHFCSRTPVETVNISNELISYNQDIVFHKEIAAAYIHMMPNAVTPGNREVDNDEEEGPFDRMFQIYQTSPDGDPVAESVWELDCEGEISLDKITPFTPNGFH", "conditions": "literature and own data", "procedure": "as §1"}, "[12]": {"target": "D1 dopamine receptor (Homo sapiens, UniProt P21728)", "sequence (P21728 whole entry)": "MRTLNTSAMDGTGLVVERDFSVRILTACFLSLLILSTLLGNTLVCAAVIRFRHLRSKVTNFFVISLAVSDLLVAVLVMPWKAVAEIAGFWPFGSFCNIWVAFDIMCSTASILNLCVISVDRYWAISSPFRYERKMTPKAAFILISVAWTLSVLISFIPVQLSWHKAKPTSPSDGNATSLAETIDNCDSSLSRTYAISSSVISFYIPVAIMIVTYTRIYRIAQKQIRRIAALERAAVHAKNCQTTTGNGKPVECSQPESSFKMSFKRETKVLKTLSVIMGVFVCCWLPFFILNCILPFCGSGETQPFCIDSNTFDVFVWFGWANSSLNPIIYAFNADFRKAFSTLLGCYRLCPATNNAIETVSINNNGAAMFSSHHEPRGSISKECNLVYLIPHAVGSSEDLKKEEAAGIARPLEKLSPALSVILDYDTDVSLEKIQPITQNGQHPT", "conditions": "literature and own data", "procedure": "as §1"}, "[13]": {"conditions": "male, beagle, dog, in vivo, 1 study day"}, "[14]": {"conditions": "male, beagle, dog, in vivo, 8 study day"}},
  "note": "Where two headings read alike, the source gives them in different places.",
  "data": [
    {"compound": "CCCN[C@H]1CCc2nc(N)sc2C1", "note": "[PPX, (6S)-4,5,6,7-tetrahydro-N6-propyl-2,6-benzothiazole-diamine]", "values": [
      {"measurement": "NOAEL at 4 days", "setting": "[1]", "result": 0.7, "unit": "µg/kg"},
      {"measurement": "MTD at 4 days", "setting": "[1]; po", "result": 7.5, "unit": "µg/kg"},
      {"measurement": "NOAEL at 4 days", "setting": "[1]; po", "result": 1.25, "unit": "µg/kg"},
      {"measurement": "dose at which vomiting occurred (and above)", "setting": "[2]", "result": "≥ 0.7", "unit": "µg/kg"},
      {"measurement": "equivalent human immediate release dose", "setting": "[3]", "result": 17, "unit": "µg/kg"},
      {"measurement": "equivalent human immediate release dose for a 70 kg individual", "setting": "[3]", "result": 1.2, "unit": "mg"},
      {"measurement": "immediate release doses at which deaths occurred (and above)", "setting": "[4]", "result": "70000 to 105000", "unit": "µg/kg"},
      {"measurement": "IC50", "setting": "[5]", "result": 0.94, "unit": "nM"},
      {"measurement": "MRTD (maximum recommended therapeutic dose)", "setting": "[6]; for a 70 lb. person", "result": 7.0, "unit": "mg/day"},
      {"measurement": "MRTD (maximum recommended therapeutic dose)", "setting": "[6]", "result": 0.11, "unit": "mg/kg/day"},
      {"measurement": "immediate release dose shown to cause somnolence", "setting": "[6]; human subjects", "result": 1.5, "unit": "mg"},
      {"measurement": "starting daily dose not tolerated", "setting": "[6]; naïve patient", "result": "greater than 0.20 mg"},
      {"measurement": "lowest effective oral immediate release dose versus placebo, Parkinson's disease", "setting": "[7]", "result": 1.1, "unit": "mg/day"},
      {"measurement": "human dose equivalent to the dog NOAEL, for a 70 kg individual", "setting": "[8]; IR dose, from dog data", "result": 0.05, "unit": "mg"},
      {"measurement": "human equivalence dose of the dog MTD, for a 70 kg human subject", "setting": "[8]; from dog data", "result": 0.30, "unit": "mg"},
      {"measurement": "Behavior/Activity: Activity decreased", "setting": "[8]; male, beagle, dog, in vivo", "result": "3/4"},
      {"measurement": "Excretion: Feces soft", "setting": "[8]; male, beagle, dog, in vivo", "result": "0/4"},
      {"measurement": "Excretion: Feces watery", "setting": "[8]; male, beagle, dog, in vivo", "result": "0/4"},
      {"measurement": "External Appearance: Lacrimation", "setting": "[8]; male, beagle, dog, in vivo", "result": "0/4"},
      {"measurement": "Eye/Ocular: Pupils dilated", "setting": "[8]; male, beagle, dog, in vivo", "result": "0/4"},
      {"measurement": "Pelage/Skin: Skin warm to touch", "setting": "[8]; male, beagle, dog, in vivo", "result": "0/4"},
      {"measurement": "Behavior/Activity: Convulsions - clonic", "setting": "[8]; [13]", "result": "0/4"},
      {"measurement": "Behavior/Activity: Salivation", "setting": "[8]; [13]", "result": "0/4"},
      {"measurement": "Behavior/Activity: Tremors", "setting": "[8]; [13]", "result": "1/4"},
      {"measurement": "Excretion: Emesis", "setting": "[8]; [13]", "result": "3/4"},
      {"measurement": "Excretion: Feces hard", "setting": "[8]; [13]", "result": "1/4"},
      {"measurement": "Excretion: Feces mucoid", "setting": "[8]; [13]", "result": "0/4"},
      {"measurement": "Behavior/Activity: Activity decreased", "setting": "[8]; [14]", "result": "0/4"},
      {"measurement": "Behavior/Activity: Tremors", "setting": "[8]; [14]", "result": "0/4"},
      {"measurement": "Excretion: Emesis", "setting": "[8]; [14]", "result": "0/4"},
      {"measurement": "Excretion: Feces hard", "setting": "[8]; [14]", "result": "0/4"},
      {"measurement": "lowest effective oral immediate release dose", "setting": "[9]", "result": 53, "unit": "µg/kg"},
      {"measurement": "lowest effective dose versus placebo, restless legs syndrome", "setting": "[10]", "result": 0.25, "unit": "mg/day"},
      {"measurement": "interaction with D5 dopamine receptors", "setting": "[11]", "result": "no significant interaction"},
      {"measurement": "interaction with D1 dopamine receptors", "setting": "[12]", "result": "no significant interaction"}
    ]}
  ]
}
